Test results from patent publication US8759400B2, “Histone deacetylase inhibitors for enhancing activity of antifungal agents” (MethylGene Inc., priority 2005, dated 2014).
Like-named read-outs stand apart in the source and are kept apart here.

Assays:
C. glabrata (ATCC 90030) = experiment: MIC80 and checkerboard synergy with antifungal agents; assay type: cell-based, Candida glabrata; conditions: for MIC50: compound alone; for MIC50 / conc. for 4-fold synergy (24 hr): C. glabrata (ATCC 90030)
HMEC = experiment: Mammalian cytotoxicity, MTT reduction
A. fumigatus ATCC 1022 = experiment: MIC80 and checkerboard synergy, broth microdilution (NCCLS M38-A); assay type: cell-based, Aspergillus fumigatus; conditions: 48 hours
HDAC = HDAC inhibitory activity in fungal protoplasts (Fluor-de-Lys); assay type: cell-based, Candida albicans; conditions: C. albicans protoplasts; for HDAC inhibition, per cent in parentheses beside IC50 >20: concentration not given
Description: Protoplasts of C. albicans and C. glabrata are prepared by the […] method of Franzusoff et al.

C. albicans (ATCC 90028) = experiment: MIC80 and checkerboard synergy with antifungal agents; assay type: cell-based, Candida albicans; conditions: Candida albicans
[1] = Nakaseomyces glabratus, ATCC90030

SMILES: O=C(Cc1ccc(CCCCCc2ccccc2)cc1)NO
- MIC50 (C. glabrata (ATCC 90030); [1]): 6.25 µg/mL

SMILES: O=C(Cc1ccc(CCCCc2ccc(C(F)(F)F)cc2)cc1)NO
- MIC50 (C. glabrata (ATCC 90030); [1]): > 25 µg/mL

SMILES: O=C(Cc1cccc(CCCCc2ccccc2)c1)NO
- MIC50 (C. glabrata (ATCC 90030); [1]): 32 µg/mL

SMILES: O=C(Cc1ccc(CCC#Cc2ccc3nonc3c2)cc1)NO
- MIC50 (C. glabrata (ATCC 90030); [1]): > 25 µg/mL

SMILES: O=C(Cc1ccc(CCCCc2ccc3c(c2)OCO3)cc1)NO
- MIC50 (C. glabrata (ATCC 90030); [1]): > 25 µg/mL

SMILES: O=C(Cc1ccc(CCCCc2ccccc2C(F)(F)F)cc1)NO
- MIC50 (C. glabrata (ATCC 90030); [1]): 12.5 µg/mL

SMILES: O=C(Cc1ccc(CCCCc2cccc(C(F)(F)F)c2)cc1)NO
- MIC50 (C. glabrata (ATCC 90030); [1]): 12.5 µg/mL

SMILES: O=C(Cc1ccc(CCCCc2cc(F)c(F)cc2F)cc1)NO
- MIC50 (C. glabrata (ATCC 90030); [1]): 3.1 µg/mL

SMILES: O=C(Cc1ccc(CCCCc2ccc3[nH]ccc3c2)cc1)NO
- MIC50 (C. glabrata (ATCC 90030); [1]): > 25 µg/mL

SMILES: O=C(CCCCCC/C(=N\O)c1ccc(-c2ccccc2)cc1)NO
- MTT HMEC (HMEC): 6 µM

SMILES: O=C(NO)c1ccc(CCCCCc2ccccc2)cc1 [Cpd 3]
- MTT HMEC (HMEC): 9 µM

SMILES: COC(c1ccc(N(C)C)cc1)C(C)/C=C(C)/C=C/C(=O)NO (centres unmarked) [Cpd 10]
- MTT HMEC (HMEC): 50 µM

SMILES: CC(/C=C/C(=O)NO)=C\C(C)Cc1ccc(N(C)C)cc1 (centres unmarked) [Cpd 12]
- MTT HMEC (HMEC): 44 µM
- conc. for 4-fold synergy (A. fumigatus ATCC 1022; with ketoconazole, A. fumigatus ATCC 1022): 0.125 µg/mL

SMILES: C[C@H](/C=C/C=C/C(=O)NO)Oc1ccc(-c2ccccc2)cc1 [Cpd 15]
- HDAC inhibition IC50 (HDAC): > 20 µg/mL
- HDAC inhibition, per cent in parentheses beside IC50 >20 (HDAC): 18%

SMILES: O=C(NO)c1ccc(CCCC(O)c2ccc3ccccc3c2)cc1 (centres unmarked) [Cpd 16]
- MTT HMEC (HMEC): 25 µM

SMILES: O=C(/C=C/c1ccc(CNc2cccc(Cl)c2)cc1)NO [Cpd 18]
- HDAC inhibition IC50 (HDAC): ~16 µg/mL

SMILES: Nc1ccc(-c2cccs2)cc1-c1cccs1 [Cpd 19]
- conc. for 4-fold synergy (24 hr) (C. glabrata (ATCC 90030); with ketoconazole): 0.5 (24 hr) μg/ml

SMILES: O=C(Cc1ccccc1)NC(=S)Nc1ccc(Nc2ccnc3ccsc23)cc1 [Cpd 20]
- MTT HMEC (HMEC): 50 µM
- HDAC inhibition IC50 (HDAC): > 20 µg/mL
- HDAC inhibition, per cent in parentheses beside IC50 >20 (HDAC): 16%

SMILES: N#Cc1ccc(-c2ccc(OCCC(=O)NO)cc2)cc1 [Cpd 21]
- MTT HMEC (HMEC): 50 µM

SMILES: O=C(NO)c1ccc(CN2c3ccccc3NC(=O)[C@H]2Cc2ccc3ccccc3c2)cc1 [Cpd 22]
- MTT HMEC (HMEC): 8 µM
- HDAC inhibition IC50 (HDAC): ~0.6 µg/mL

SMILES: O=C(NO)c1ccc(CN2c3ccccc3NC(=O)[C@H]2Cc2cccc(C(F)(F)F)c2)cc1 [Cpd 23]
- HDAC inhibition IC50 (HDAC): ~0.6 µg/mL

SMILES: CC(Cc1ccc(C(C)(C)C)cc1)CN1C[C@@H](C)O[C@@H](C)C1 (some centres unmarked) [Fenpropimorph, fenpropimorph, reference compound]
- MIC (C. glabrata (ATCC 90030); Nakaseomyces glabratus, ATCC90030, fenpropimorph alone, C. glabrata, read-out: Fenpropimorph MIC): 6.25 µg/mL

SMILES: C[C@@H]([C@H](N)C(=O)N[C@H](C(=O)O)[C@H]1O[C@@H](n2ccc(=O)[nH]c2=O)[C@H](O)[C@@H]1O)[C@H](O)c1ccc(O)cn1 [Nikkomycin, nikkomycin, reference compound]
- MIC (C. albicans (ATCC 90028); ATCC90028, read-out: Nikkomycin MIC): 100 µg/mL

SMILES: CN(C/C=C/C#CC(C)(C)C)Cc1cccc2ccccc12 [Terbinafine, terbinafine, reference compound]
- MIC (C. albicans (ATCC 90028); ATCC90028, terbinafine alone, C. albicans, read-out: Terbinafine MIC): 0.39 µg/mL

SMILES: CC(/C=C/C(=O)NO)=C\C(C)Cc1ccc(N(C)C)cc1 (centres unmarked) [drawing 125]
- MTT HMEC (HMEC): 44 µM

SMILES: CC(/C=C/C(=O)NO)=C\C(C)Cc1ccc(N(C)C)cc1 (centres unmarked) [drawing 131]
- conc. for 4-fold synergy (24 hr) (C. glabrata (ATCC 90030); with itraconazole): 1.56 (24 hr) μg/ml
- MTT HMEC (HMEC): 44 µM

SMILES: CC(/C=C/C(=O)NO)=C\C(C)Cc1ccc(N(C)C)cc1 (centres unmarked) [drawing 137]
- MTT HMEC (HMEC): 44 µM

SMILES: CC(/C=C/C(=O)NO)=C\C(C)Cc1ccc(N(C)C)cc1 (centres unmarked) [drawing 143]
- MTT HMEC (HMEC; Table 9 head): 4.4e-05 µM

SMILES: O=C(Cc1ccc(CCCCc2ccccc2)cc1)NO [drawing 144]
- MTT HMEC (HMEC; Table 9 head): 1.3e-05 µM

SMILES: O=C(Cc1ccc(CCCc2ccccc2)cc1)NO [drawing 145]
- MTT HMEC (HMEC; Table 9 head): 4.7e-05 µM

SMILES: O=C(CCc1ccc(CCCc2ccccc2)cc1)NO [drawing 146]
- MTT HMEC (HMEC; Table 9 head): 4e-05 µM

SMILES: O=C(CCc1ccc(CCc2ccccc2)cc1)NO [drawing 147]
- MTT HMEC (HMEC; Table 9 head): 1e-05 µM

SMILES: O=C(Cc1ccc(CCCCc2ccccc2)cc1)NO [drawing 149]
- conc. for 4-fold synergy (A. fumigatus ATCC 1022; with fluconazole, A. fumigatus ATCC 1022): >1 µg/mL

SMILES: O=C(Cc1ccc(CCCCc2ccccc2)cc1)NO [drawing 151]
- conc. for 4-fold synergy (A. fumigatus ATCC 1022; with itraconazole, A. fumigatus ATCC 1022): >1 µg/mL

SMILES: O=C(Cc1ccc(CCCCc2ccccc2)cc1)NO [drawing 153]
- conc. for 4-fold synergy (A. fumigatus ATCC 1022; with voriconazole, A. fumigatus (ATCC 1022)): 1 µg/mL
